In ChEMBL document CHEMBL3997848 (Bioorg Med Chem, 2017):
Square brackets hold non-standard residues; d marks the D form. Peptide text beside a SMILES is read from it.

Assays:
[1] = test system: Mus musculus; test: Antinociceptive activity in C57BL6/J mouse assessed as analgesia at 5 mg/kg, ip measured after 30 mins by tail flick test (reference value: -7%); type: functional
[2] = test system: Mus musculus; test: Antinociceptive activity in C57BL6/J mouse assessed as analgesia at 5 mg/kg, ip measured after 60 mins by tail flick test (reference value: 3%); type: functional
[3] = test system: Mus musculus; test: Antinociceptive activity in C57BL6/J mouse assessed as analgesia at 5 mg/kg, ip measured after 90 mins by tail flick test (reference value: 10%); type: functional
[4] = test system: Mus musculus; test: Antinociceptive activity in C57BL6/J mouse assessed as analgesia at 5 mg/kg, ip measured after 120 mins by tail flick test (reference value: -8%); type: functional
[5] = target: Mu opioid receptor-like OR2 (Danio rerio, UniProt B8JHS2); test: Displacement of [3H]DPN from zebrafish mu opioid receptor expressed in HEK293 cell membranes after 1 hr by scintillation counting method
[6] = target: Opioid receptor, delta 1b (Danio rerio, UniProt B3DH72); test: Displacement of [3H]DPN from zebrafish delta 1b opioid receptor expressed in HEK293 cell membranes after 4 hrs by scintillation counting method
[7] = target: Opioid receptor homologue (Danio rerio, UniProt A3QJX7); test: Displacement of [3H]DPN from zebrafish delta 1a opioid receptor expressed in HEK293 cell membranes after 1 hr by scintillation counting method
[8] = test system: Mus musculus; test: Antinociceptive activity in C57BL6/J mouse assessed as analgesia at 8 mg/kg, ip measured after 30 mins by tail flick test (reference value: -7%); type: functional
[9] = test system: Mus musculus; test: Antinociceptive activity in C57BL6/J mouse assessed as analgesia at 8 mg/kg, ip measured after 60 mins by tail flick test (reference value: 3%); type: functional
[10] = test system: Mus musculus; test: Antinociceptive activity in C57BL6/J mouse assessed as analgesia at 8 mg/kg, ip measured after 90 mins by tail flick test (reference value: 10%); type: functional
[11] = test system: Mus musculus; test: Antinociceptive activity in C57BL6/J mouse assessed as analgesia at 8 mg/kg, ip measured after 120 mins by tail flick test (reference value: -8%); type: functional

Sequence of Opioid receptor, delta 1b (B3DH72 whole entry): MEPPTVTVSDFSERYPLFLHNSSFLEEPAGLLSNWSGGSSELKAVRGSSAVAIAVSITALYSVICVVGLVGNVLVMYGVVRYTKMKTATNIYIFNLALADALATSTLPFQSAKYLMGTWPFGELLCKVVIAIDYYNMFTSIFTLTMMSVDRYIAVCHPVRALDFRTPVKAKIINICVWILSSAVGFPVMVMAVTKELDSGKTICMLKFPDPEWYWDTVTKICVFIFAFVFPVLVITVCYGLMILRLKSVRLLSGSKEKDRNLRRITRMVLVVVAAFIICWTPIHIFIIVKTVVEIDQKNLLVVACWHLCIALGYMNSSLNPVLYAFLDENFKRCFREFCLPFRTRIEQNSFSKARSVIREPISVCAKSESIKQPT
Sequence of Opioid receptor homologue (A3QJX7 whole entry): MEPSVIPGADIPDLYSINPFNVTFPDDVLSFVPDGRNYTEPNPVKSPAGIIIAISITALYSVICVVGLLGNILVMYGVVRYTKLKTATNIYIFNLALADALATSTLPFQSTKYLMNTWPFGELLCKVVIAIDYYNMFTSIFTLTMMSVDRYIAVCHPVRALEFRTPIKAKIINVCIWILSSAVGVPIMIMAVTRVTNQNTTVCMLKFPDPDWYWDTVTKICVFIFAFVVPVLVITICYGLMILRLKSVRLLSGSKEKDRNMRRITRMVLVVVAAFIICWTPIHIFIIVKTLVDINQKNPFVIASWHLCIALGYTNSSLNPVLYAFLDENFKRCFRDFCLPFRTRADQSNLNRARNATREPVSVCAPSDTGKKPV
Sequence of Mu opioid receptor-like OR2 (B8JHS2 whole entry): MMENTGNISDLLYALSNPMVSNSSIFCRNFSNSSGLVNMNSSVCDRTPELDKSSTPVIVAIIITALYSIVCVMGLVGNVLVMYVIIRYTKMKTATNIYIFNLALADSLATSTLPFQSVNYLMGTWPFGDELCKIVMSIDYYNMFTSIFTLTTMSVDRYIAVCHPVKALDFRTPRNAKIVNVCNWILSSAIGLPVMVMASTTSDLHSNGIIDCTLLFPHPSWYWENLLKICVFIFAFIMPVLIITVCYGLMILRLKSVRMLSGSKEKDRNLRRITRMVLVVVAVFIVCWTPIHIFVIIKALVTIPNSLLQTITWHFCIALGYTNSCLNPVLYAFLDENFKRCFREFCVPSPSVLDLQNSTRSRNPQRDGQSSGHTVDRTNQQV

Question: What does the source list for `CN1CC[C@]23c4c5ccc(O)c4O[C@H]2[C@@H](O)C=C[C@H]3[C@H]1C5` [MORPHINE]?
Answer: Activity [1]: 30%; Activity [2]: 51%; Activity [3]: 45%; Activity [4]: 30%

Question: What does the source list for `CSCC[C@H](NC(=O)[C@H](Cc1ccccc1)NC(=O)CNC(=O)CNC(=O)[C@@H](N)Cc1ccc(O)cc1)C(=O)O`?
Answer: Ki [5]: 684 nM; Ki [6]: 45 nM

Question: Which results are given for `CSCC[C@@H](NC(=O)[C@@H](N)Cc1ccc(O)cc1)C(=O)NCC(=O)N[C@@H](Cc1ccccc1)C(=O)N1C[C@@H](O[C@@H]2O[C@H](CO)[C@@H](O[C@H]3O[C@@H](CO)[C@H](O)[C@@H](O)[C@@H]3O)[C@H](O)[C@H]2O)C[C@H]1C(N)=O`?
Answer: Ki [5]: 223 nM; Ki [7]: 843 nM; Ki [6]: 528 nM

Question: What does the source list for `CSCC[C@@H](NC(=O)[C@@H](N)Cc1ccc(O)cc1)C(=O)NCC(=O)N[C@@H](Cc1ccccc1)C(=O)N1C[C@@H](O[C@@H]2O[C@H](CO)[C@@H](O[C@H]3O[C@@H](CO)[C@@H](O)[C@@H](O)[C@@H]3O)[C@H](O)[C@H]2O)C[C@H]1C(N)=O`?
Answer: Ki [5]: 203 nM; Ki [7]: 635 nM; Ki [6]: 559 nM

Question: With `CSCC[C@@H](NC(=O)[C@@H](N)Cc1ccc(O)cc1)C(=O)NCC(=O)N[C@@H](Cc1ccccc1)C(=O)N1C[C@@H](O[C@H]2O[C@H](CO)[C@@H](O)[C@H](O)[C@@H]2O)C[C@H]1C(N)=O` as the compound, how does the Ki [5] read?
Answer: 239 nM

Question: What about the Ki [7] of the same compound?
Answer: 609 nM

Question: What about the Ki [6] of the same compound?
Answer: 536 nM

Question: And the Activity [1]?
Answer: 40%

Question: And the Activity [2]?
Answer: 60%

Question: And the Activity [3]?
Answer: 50%

Question: And the Activity [4]?
Answer: 40%

Question: What about the Activity [8] of the same compound?
Answer: 45%

Question: And the Activity [9]?
Answer: 62%

Question: What about the Activity [10] of the same compound?
Answer: 35%

Question: And the Activity [11]?
Answer: 45%

Question: How did the Ki [5] turn out when `CSCC[C@@H](NC(=O)[C@@H](N)Cc1ccc(O)cc1)C(=O)NCC(=O)N[C@@H](Cc1ccccc1)C(=O)N1C[C@@H](O[C@@H]2O[C@H](CO)[C@@H](O)[C@H](O)[C@H]2O)C[C@H]1C(N)=O` was run?
Answer: 313 nM

Question: What about the Ki [7] of the same compound?
Answer: 389 nM

Question: What about the Ki [6] of the same compound?
Answer: 159 nM

Question: `CSCC[C@@H](NC(=O)[C@@H](N)Cc1ccc(O)cc1)C(=O)NCC(=O)N[C@@H](Cc1ccccc1)C(=O)N1CCC[C@H]1C(N)=O` (H-Y[dM]GFP-NH2) was tested. Which Ki [5] did it give?
Answer: 269 nM

Question: What about the Ki [7] of the same compound?
Answer: 566 nM

Question: What about the Ki [6] of the same compound?
Answer: 256 nM

Question: For `CSCC[C@@H](NC(=O)[C@@H](N)Cc1ccc(O)cc1)C(=O)NCC(=O)N[C@@H](Cc1ccccc1)C(=O)N1C[C@@H](O[C@@H]2O[C@H](CO)[C@H](O)[C@H](O)[C@H]2O)C[C@H]1C(N)=O`, which Ki [5] is on record?
Answer: 383 nM

Question: What about the Ki [7] of the same compound?
Answer: 468 nM

Question: And the Ki [6]?
Answer: 518 nM
